In ChEMBL document CHEMBL1201862, “PubChem BioAssay data set” (2004):
“And” between values parts separate entries of the source, which are not always exact repeats. Equal values may be shown once.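 In this assay, cells in 96-well plates receive the compound at five concentrations for 48 hours. Endpoints are linearly interpolated between the surrounding concentrations. GI50 = concentration required for 50% inhibition of growth.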 The source made the active and inactive calls. Cut-off read from the data, not from the text of the source: active = GI50 up to about 1.1 µM and inactive = higher.

How the values were obtained:
Assay in all cases: DTP human tumour cell line panel, 48 h
[1] = tested on: HCT-15
[2] = tested on: NCI-H226
[3] = tested on: NCI/ADR-RES
[4] = tested on: SR
[5] = tested on: SF-295
[6] = tested on: SK-OV-3
[7] = tested on: OVCAR-8
[8] = tested on: HCC 2998
[9] = tested on: SK-MEL-2
[10] = tested on: MOLT-4
[11] = tested on: Hs-578T
[12] = tested on: CCRF-CEM
[13] = tested on: A549
[14] = tested on: SK-MEL-28
[15] = tested on: NCI-H460
[16] = tested on: M14
[17] = tested on: HL-60
[18] = tested on: HT-29
[19] = tested on: EKVX
[20] = tested on: A498

Compound	GI50 [1]	GI50 [2]	GI50 [3]	GI50 [4]	GI50 [5]	GI50 [6]	GI50 [7]	GI50 [8]	GI50 [9]	GI50 [10]	GI50 [11]	GI50 [12]	GI50 [13]	GI50 [14]	GI50 [15]	GI50 [16]	GI50 [17]	GI50 [18]	GI50 [19]	GI50 [20]
Cc1cn(C2C=CC(COP(=O)(OCC3=CC(=O)c4ccccc4C3=O)N(C)CCCCCl)O2)c(=O)[nH]c1=O (stereo not given)	8.51 µM	10.3 µM (inactive)	16.4 µM (inactive)	0.0473 µM (active)	2.59 µM (inactive)	11 µM (inactive)	13.7 µM (inactive)	1.24 µM (inactive)	13.2 µM (inactive)	0.15 µM (active)	3.9 µM (inactive)	3.12 µM (inactive)	1.6 µM (inactive)	5.15 µM (inactive)	2.49 µM (inactive)	1.18 µM (inactive)	1.42 µM (inactive)	12.7 µM (inactive)		
O=C(Nc1ccc(Cl)cc1)NS(=O)(=O)c1coc2cc(F)ccc2c1=O	19.9 µM	> 100 µM (inactive)	> 100 µM (inactive)	95.9 µM (inactive)	> 100 µM (inactive)	> 100 µM (inactive)	> 100 µM (inactive)	80.4 µM (inactive)	52.6 µM (inactive)	> 100 µM (inactive)	> 100 µM (inactive)	86.3 µM (inactive)	> 100 µM (inactive)	> 100 µM (inactive)	> 100 µM (inactive)	> 100 µM (inactive)		> 100 µM (inactive)	> 100 µM (inactive)	
CC1(C)CNC(=O)C2(CCCO2)CNC(C)(C)CNC(=O)C2(CCCO2)CN1 (stereo not given)	> 10 µM		> 10 µM (inactive)	> 10 µM (inactive)	> 10 µM (inactive)	> 10 µM (inactive)	> 10 µM (inactive)	> 10 µM (inactive)		> 10 µM (inactive)	> 10 µM (inactive)	> 10 µM (inactive)	> 10 µM (inactive)	> 10 µM (inactive)		> 10 µM (inactive)	> 10 µM (inactive)	> 10 µM (inactive)		
CC1=C(C)C(=O)C2=C(OCCO2)C1=O	17.5 µM	24.3 µM (inactive)	3.54 µM (inactive)	4.09 µM (inactive)	18.1 µM (inactive)	17.9 µM (inactive)	3.08 µM (inactive)	19.5 µM (inactive)		2.55 µM (inactive)		3.73 µM (inactive)	21.5 µM (inactive)	16.1 µM (inactive)	20.6 µM (inactive)	19.3 µM (inactive)	2.96 µM (inactive)	20 µM (inactive)	15.1 µM (inactive)	19.5 µM (inactive)
O=C1C(=Cc2ccccc2O)N=C(c2ccccc2)N1n1c(-c2ccccc2)nc2ccccc2c1=O	40.4 µM	31.6 µM (inactive)		32.9 µM (inactive)	22.8 µM (inactive)	48.3 µM (inactive)	31.3 µM (inactive)	30.7 µM (inactive)		26.7 µM (inactive)	35.6 µM (inactive)	28.4 µM (inactive)	33.6 µM (inactive)	33.8 µM (inactive)	29.8 µM (inactive)	19.3 µM (inactive)	15.2 µM (inactive)	37.2 µM (inactive)	30.6 µM (inactive)	21.5 µM (inactive)
Cc1ccc(S(=O)(=O)CN2C(=O)C(c3ccccc3)(c3ccccc3)C23OC(c2ccc(Cl)cc2)=CC3=O)cc1 (stereo not given)	> 10 µM	> 10 µM (inactive)	> 10 µM (inactive)		> 10 µM (inactive)	> 10 µM (inactive)	> 10 µM (inactive)	> 10 µM (inactive)	> 10 µM (inactive)	> 10 µM (inactive)	> 10 µM (inactive)	> 10 µM (inactive)	> 10 µM (inactive)	> 10 µM (inactive)	> 10 µM (inactive)	> 10 µM (inactive)	> 10 µM (inactive)	> 10 µM (inactive)	> 10 µM (inactive)	> 10 µM (inactive)
O=S(=O)(O)c1cc(O)c(/N=N\C2S(=O)(=O)OCCOS2(=O)=O)c2ccccc12	> 100 µM	> 100 µM (inactive)	> 100 µM (inactive)		51.4 µM (inactive)	> 100 µM (inactive)	> 100 µM (inactive)	> 100 µM (inactive)	> 100 µM (inactive)	30.6 µM (inactive)	> 100 µM (inactive)	28.8 µM (inactive)	> 100 µM (inactive)	> 100 µM (inactive)	23.4 µM (inactive)	> 100 µM (inactive)	22.2 µM (inactive)	> 100 µM (inactive)	> 100 µM (inactive)	> 100 µM (inactive)
c1ccc(-c2cc(-c3cc(-c4ccccc4)n(-c4ccccc4)n3)nn2-c2ccccc2)cc1	> 100 µM	> 100 µM (inactive)	> 100 µM (inactive)		> 100 µM (inactive)	> 100 µM (inactive)	> 100 µM (inactive)	> 100 µM (inactive)	> 100 µM (inactive)	> 100 µM (inactive)	52 µM (inactive)	> 100 µM (inactive)	> 100 µM (inactive)		> 100 µM (inactive)	> 100 µM (inactive)		> 100 µM (inactive)	> 100 µM (inactive)	> 100 µM (inactive)
CC1=NC(=Cc2ccc(Cl)cc2)C(=O)N1n1c(-c2ccccc2)nc2ccccc2c1=O	44.4 µM	> 100 µM (inactive)		33.5 µM (inactive)	40.9 µM (inactive)	38.5 µM (inactive)	39.4 µM (inactive)	38.8 µM (inactive)		34.5 µM (inactive)	18.1 µM (inactive)	37.8 µM (inactive)	39.8 µM (inactive)	51.4 µM (inactive)	23 µM (inactive)	39.4 µM (inactive)	26.3 µM (inactive)	37 µM (inactive)	27.2 µM (inactive)	24.6 µM (inactive)
CC1=CC(C/C(C)=C/COc2ccc3ccc(=O)oc3c2)OC1=O (stereo not given)	95.9 µM	> 100 µM (inactive)	27.4 µM (inactive)	95.1 µM (inactive)	> 100 µM (inactive)	> 100 µM (inactive)	> 100 µM (inactive)	> 100 µM (inactive)		49.8 µM (inactive)	> 100 µM (inactive)	> 100 µM (inactive)	> 100 µM (inactive)	> 100 µM (inactive)	> 100 µM (inactive)	> 100 µM (inactive)	59.4 µM (inactive)	> 100 µM (inactive)	> 100 µM (inactive)	
C[C@H]1CCC/C=C/[C@@H]2C[C@H](O)C[C@H]2[C@H](O)/C=C/C(=O)O1 [BREFELDIN A]	0.0692 µM and 0.043 µM	19.9 nM (active) and 25.8 nM (active)	< 14.9 nM (active) and 27.4 nM (active)			60.1 nM (active) and 44.1 nM (active)	< 12.9 nM (active) and 22.2 nM (active)		47.4 nM (active) and 30.6 nM (active)		< 10 nM (active) and 10.1 nM (active)			19.2 nM (active) and < 19.9 nM (active)		< 16.1 nM (active) and 26.1 nM (active)		< 10 nM (active) and 15.8 nM (active)		< 10 nM (active) and 17.4 nM (active)
CC(C)(C)N/C(N)=N/C#N	> 100 µM		> 100 µM (inactive)	> 100 µM (inactive)		> 100 µM (inactive)	> 100 µM (inactive)	> 100 µM (inactive)	> 100 µM (inactive)	> 100 µM (inactive)	> 100 µM (inactive)	> 100 µM (inactive)	> 100 µM (inactive)	> 100 µM (inactive)	> 100 µM (inactive)	> 100 µM (inactive)	> 100 µM (inactive)	> 100 µM (inactive)	> 100 µM (inactive)	
O=C1CC2c3ccccc3CCC2c2ccccc21 (stereo not given)	14.1 µM	12.1 µM (inactive)		46.7 µM (inactive)	17.6 µM (inactive)	51.2 µM (inactive)	21.2 µM (inactive)	21.5 µM (inactive)	16.8 µM (inactive)	32.3 µM (inactive)	12.4 µM (inactive)		27.5 µM (inactive)	36.1 µM (inactive)	22.3 µM (inactive)	15.7 µM (inactive)	21.6 µM (inactive)	13.3 µM (inactive)	2.58 µM (inactive)	1 µM (active)
COc1ccc(/C=C2\S/C(=N/Nc3nc(-c4ccccc4)cs3)NC2=O)cc1OC	21.5 µM		20.7 µM (inactive)		25.3 µM (inactive)	21.5 µM (inactive)	21 µM (inactive)	22.4 µM (inactive)	19.1 µM (inactive)	3.07 µM (inactive)	24.6 µM (inactive)	4.1 µM (inactive)	20.9 µM (inactive)	32.7 µM (inactive)	23 µM (inactive)	32.4 µM (inactive)	6 µM (inactive)		22.6 µM (inactive)	
CCOC(=O)C1OC(=O)CC1C1(C(=O)OCC)C=CC(=O)O1 (stereo not given)	> 100 µM	> 100 µM (inactive)	> 100 µM (inactive)	> 100 µM (inactive)	> 100 µM (inactive)	> 100 µM (inactive)	> 100 µM (inactive)	> 100 µM (inactive)	> 100 µM (inactive)	> 100 µM (inactive)		59.7 µM (inactive)	> 100 µM (inactive)	> 100 µM (inactive)	17.9 µM (inactive)	> 100 µM (inactive)	42 µM (inactive)	> 100 µM (inactive)	> 100 µM (inactive)	
CC1N=C(c2ccccc2)OC1=O (stereo not given)	> 100 µM	> 100 µM (inactive)	> 100 µM (inactive)		> 100 µM (inactive)	> 100 µM (inactive)	> 100 µM (inactive)		> 100 µM (inactive)	> 100 µM (inactive)	> 100 µM (inactive)	> 100 µM (inactive)	> 100 µM (inactive)	> 100 µM (inactive)	> 100 µM (inactive)	> 100 µM (inactive)		> 100 µM (inactive)	> 100 µM (inactive)	> 100 µM (inactive)
